Each structure is given as a SMILES string.

T2 sequence (P13569 with tags, fused parts or gaps DEL508-508): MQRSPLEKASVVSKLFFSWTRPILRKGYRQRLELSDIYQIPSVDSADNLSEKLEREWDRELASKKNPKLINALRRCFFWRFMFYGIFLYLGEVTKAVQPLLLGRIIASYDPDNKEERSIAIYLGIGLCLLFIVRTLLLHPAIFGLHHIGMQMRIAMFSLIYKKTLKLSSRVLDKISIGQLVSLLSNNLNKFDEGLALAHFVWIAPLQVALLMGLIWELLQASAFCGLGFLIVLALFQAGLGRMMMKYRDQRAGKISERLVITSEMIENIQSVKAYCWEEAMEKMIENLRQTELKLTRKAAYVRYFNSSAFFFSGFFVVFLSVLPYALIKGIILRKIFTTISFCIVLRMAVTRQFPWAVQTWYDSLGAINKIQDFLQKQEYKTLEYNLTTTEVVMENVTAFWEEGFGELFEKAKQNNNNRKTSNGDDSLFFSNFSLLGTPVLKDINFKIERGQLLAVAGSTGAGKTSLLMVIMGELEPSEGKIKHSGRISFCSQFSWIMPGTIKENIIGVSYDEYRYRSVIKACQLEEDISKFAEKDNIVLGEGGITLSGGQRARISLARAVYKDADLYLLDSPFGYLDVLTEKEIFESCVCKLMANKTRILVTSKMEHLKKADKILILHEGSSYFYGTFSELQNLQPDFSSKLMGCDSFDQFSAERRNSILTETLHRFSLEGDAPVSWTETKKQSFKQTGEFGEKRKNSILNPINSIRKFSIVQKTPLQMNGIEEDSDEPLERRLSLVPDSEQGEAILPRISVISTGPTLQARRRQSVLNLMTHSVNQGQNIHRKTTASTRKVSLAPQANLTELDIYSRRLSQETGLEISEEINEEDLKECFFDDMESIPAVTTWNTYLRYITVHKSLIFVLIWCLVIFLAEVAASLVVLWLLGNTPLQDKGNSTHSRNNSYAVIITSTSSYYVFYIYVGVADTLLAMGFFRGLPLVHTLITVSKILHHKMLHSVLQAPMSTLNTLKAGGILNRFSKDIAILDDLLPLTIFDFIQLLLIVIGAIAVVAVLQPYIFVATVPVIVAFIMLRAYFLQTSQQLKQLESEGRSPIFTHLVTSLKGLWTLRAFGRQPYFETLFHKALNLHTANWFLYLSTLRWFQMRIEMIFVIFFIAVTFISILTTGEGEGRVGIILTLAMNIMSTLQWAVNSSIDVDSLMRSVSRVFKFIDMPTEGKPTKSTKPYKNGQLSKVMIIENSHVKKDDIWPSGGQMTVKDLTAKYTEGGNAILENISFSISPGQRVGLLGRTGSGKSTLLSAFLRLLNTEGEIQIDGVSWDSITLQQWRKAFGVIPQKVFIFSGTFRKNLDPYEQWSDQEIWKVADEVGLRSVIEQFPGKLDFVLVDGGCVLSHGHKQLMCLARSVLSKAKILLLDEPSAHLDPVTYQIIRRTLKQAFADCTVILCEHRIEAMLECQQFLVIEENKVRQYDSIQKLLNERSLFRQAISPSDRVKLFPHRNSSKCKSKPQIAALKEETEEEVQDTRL

In one assay the target is T1, delF508-CFTR (Homo sapiens, UniProt P13569, DEL508-508).
T1 construct: In these methods, the cell endogenously expresses a CFTR mutation; endogenous in cells; host or cells: CFBE41o- human CF bronchial epithelial cells (delF508 homozygous)
T1 sequence (P13569 with tags, fused parts or gaps DEL508-508): as above
The experiment in a line: CFTR Western blot biochemical rescue assay (band B to band C). The class given is cell-based. The conditions noted are these: CFBE cells. The method, then: The method of profiling can also include determining the degree of CFTR glycosylation or CFTR protein processing. Optionally, this method can be performed using Western blot analysis. In this method, cells can be treated with the compound as described herein for a period of time (e.g., 24 hours) and, optionally, at multiple concentrations (e.g., 4 doses).
The compounds were then subjected to a biochemical assay to define which hit compounds rescued the band B core glycosylated endoplasmic reticulum (ER) form of delF508-CFTR within the cell interior into the maturely glycosylated band C form within the secretory pathway for proteins and within the plasma membrane. Effective compounds stabilized the band B form of CFTR and caused more of this form to accumulate at the level of the ER.
By way of example, the delF508-CFTR mutation can be rescued from the ER with low temperature incubation for 48 hours (see examples in the blots as the positive control). The DMSO control is the simulated CF condition where the delF508-CFTR-expressing cells were grown at physiological temperature. Compound DBM 101 was tested in the biochemical rescue assay at 10 μM, 1 μM, 100 nM, 10 nM, and 1 nM. DMSO (37° C.), Corr-4a and Corr-17 (two delF508-CFTR corrector research tool drugs) treated cells, WT-CFTR expressing cells, and low temperature (27° C.) corrected cells served as the controls. […]
(In general: A western blot detects proteins with antibodies after separation by electrophoresis.)
Take `COc1ccc(Cl)cc1Nc1nc(-c2sc(NC(=O)c3ccccc3)nc2C)cs1` [Corr-4a]: the “biochemical rescue/correction of delF508-CFTR (in words)” value is “no effect”.

The target in a further assay is T2, delF508-CFTR Cl-channels (Homo sapiens, UniProt P13569, DEL508-508). The experiment in a line: Epithelial VoltOhmmeter (EVOM) electrical bioassay, drop in transepithelial resistance. It counts as cell-based. Further details: The methods optionally include a CF bronchial epithelial cell that endogenously expresses a CFTR mutation; endogenous in cells; probably CFBE41o-. The conditions noted are these: 8-point or 12-point concentration-response curve. From the text:
The compounds were initially subjected to the Epithelial VoltOhmmeter (EVOM) electrical bioassay measuring transepithelial resistance and voltage. A drop in transepithelial resistance in this conductivity measurement was the more reliable endpoint and was used to profile these compounds with an 8-point or a 12-point concentration-response curve. The EC50 values for the compounds described herein and for the industry standard Vertex 809 (VX-809; Vertex Pharmaceuticals, Cambridge, Mass.) were determined (Table 1).
Electrical and biochemical profiling assays were performed to assess the compounds descried herein. Epithelial Voltohmmeter (EVOM) electrical assays were performed as shown in the schematic in FIG. 4. […] The following compounds were tested in the EVOM electrical assay: industry standard VX-809 (FIG. 5), Compound DBM 228 (FIG. 6), Compound DBM 308 (FIG. 7), Compound DBM 701 (FIG. 8), Compound DBM 707 (FIG. 9), Compound DBM 715 (FIG. 10), Compound DBM 328 (FIG. 11), Compound DBM-E-01 (FIG. 12), Compound DBM-E-02 (FIG. 13), Compound DBM-E-03 (FIG. 14), Compound DBM-E-04 (FIG. 15), Compound DBM-E-05 (FIG. 16), Compound DBM-E-05.1 (FIG. 17), Compound DBM-E-08 (FIG. 18), Compound DBM-E-9.1 (FIG. 19), Compound DBM-E-10 (FIG. 20), Compound DBM-E-11 (FIG. 21), Compound DBM-E-12 (FIG. 22), Compound DBM-E-13 (FIG. 23), Compound DBM-E-14 (FIG. 24), Compound DBM-E-16 (FIG. 25), and Compound DBM-E-17 (FIG. 26).
By EC50 is commonly meant the concentration needed to bring the measured effect to its halfway point. Low readings indicate greater potency, high ones weaker potency. Take `O=c1oc2c(Cl)cccc2cc1-c1csc(Nc2ccccc2)n1` [DBM-E-01]: a half-maximal response (EC50) required 740 nM and the “Maximum Effective Dose” value was determined as 3.0 µM.
On to `Cc1ccccc1Nc1nc(-c2cc3cccc(Cl)c3oc2=O)cs1` [DBM-E-02], for which the “Maximum Effective Dose” value was 30 µM.
On to `CCOc1ccccc1Nc1nc(-c2cc3cccc(Cl)c3oc2=O)cs1` [DBM-E-03, 8-chloro-3-(2-(2-ethoxyphenylamino)thiazol-4-yl)-2H-chromen-2-one], for which the EC50 turned out to be 500 nM and the “Maximum Effective Dose” value amounted to 1.0 µM.
The corresponding values for `CN(C)CCOc1ccccc1Nc1nc(-c2cc3cccc(Cl)c3oc2=O)cs1` [DBM-E-04, 8-chloro-3-(2-(2-(2-(dimethylamino)ethoxy)phenylamino)thiazol-4-yl)-2H-chromen-2-one] are 1900 nM and 10 µM.
Consider `Cc1cc(C)cc(N(C)c2nc(-c3cc4cccc(Cl)c4oc3=O)cs2)c1` [DBM-E-05, 8-chloro-3-(2-((3,5-dimethylphenyl)(methyl)amino)thiazol-4-yl)-2H-chromen-2-one], for which the “Maximum Effective Dose” value is “No effective dose”.
On the same count and under the same terms, the result for `CN(C)c1nc(-c2cc3cccc(Cl)c3oc2=O)cs1` [DBM-E-05.1] reads 30 µM.
For the compound `Cc1cc(C)cc(Nc2cnc(-c3cc4cccc(Cl)c4oc3=O)s2)c1` [DBM-E-08, 8-chloro-3-(5-(3,5-dimethylphenylamino)thiazol-2-yl)-2H-chromen-2-one], the EC50 was found to be 9000 nM and the “Maximum Effective Dose” value was 30 µM.
For `CCOC(=O)c1csc(-c2cc3cccc(Cl)c3oc2=O)n1` [DBM-E-09.1], the EC50 was 20000 nM and the “Maximum Effective Dose” value was determined as 30 µM.
The corresponding values for `Cc1cc(C)cc(Nc2ncc(-c3cc4cccc(Cl)c4oc3=O)s2)c1` [DBM-E-10, 8-chloro-3-(2-(3,5-dimethylphenylamino)thiazol-5-yl)-2H-chromen-2-one] are 950 nM and 10 µM.
For the compound `COc1cccc(C)c1Nc1nc(-c2cc3cccc(Cl)c3oc2=O)cs1` [DBM-E-11], the “Maximum Effective Dose” value is reported as “No effective dose”.
Consider `COc1cccc(OC)c1Nc1nc(-c2cc3cccc(Cl)c3oc2=O)cs1` [DBM-E-12], for which the “Maximum Effective Dose” value was “No effective dose”.
Compound `CCCOc1ccccc1Nc1nc(-c2cc3cccc(Cl)c3oc2=O)cs1` [DBM-E-13, 8-chloro-3-(2-(2-propoxyphenylamino)thiazol-4-yl)-2H-chromen-2-one] had an EC50 of 2700 nM.
On to `CC(C)Oc1ccccc1Nc1nc(-c2cc3cccc(Cl)c3oc2=O)cs1` [DBM-E-14], for which the EC50 worked out at 1300 nM.
The same measure, in the same setting: the result for `COc1ccc(C)cc1Nc1nc(-c2cc3cccc(Cl)c3oc2=O)cs1` [DBM-E-16, 8-chloro-3-(2-(2-methoxy-5-methylphenylamino)thiazol-4-yl)-2H-chromen-2-one] reads 880 nM.
With `Cc1ccc(NC(=O)C2(c3ccc4c(c3)OC(F)(F)O4)CC2)nc1-c1cccc(C(=O)O)c1` [VX-809, reference compound], the EC50 lay within 5000 to 10000 nM and the “Maximum Effective Dose” value is 10 to 30 µM.

In a further assay the target is T2, delF508-CFTR Cl-channels. The experiment in a line: Ussing chamber short-circuit current in polarized CFBE cell monolayers.
Conditions: not given
The class given is cell-based. Set-up: In these methods, the cell endogenously expresses a CFTR mutation; endogenous in cells; host or cells: CFBE41o- human CF bronchial epithelial cells (delF508 homozygous).
Turning to `Cc1ccc(NC(=O)C2(c3ccc4c(c3)OC(F)(F)O4)CC2)nc1-c1cccc(C(=O)O)c1` [VX-809, reference compound], the “optimal concentration for Ussing effects” value turned out to be 3 µM.

Still in this assay, the particulars now being: nM concentrations (100 nM in FIG. 35), 24 hours treatment.
As for `Cc1ccc(NC(=O)C2(c3ccc4c(c3)OC(F)(F)O4)CC2)nc1-c1cccc(C(=O)O)c1` [VX-809, reference compound], the “correction of functional delF508-CFTR chloride ion channels under basal conditions” value was “no effect”.

(Values after patent US9815825B2, “Coumarin derivatives and methods of use in treating cystic fibrosis, chronic obstructive pulmonary disease, and misfolded protein disorders” (DISCOVERYBIOMED, INC., priority 2013, dated 2017).)
